Laboratory results reported in paper PMC7835349 (Communications Biology, 2021).
Several values for one entry are separate records, joined by “and”; a condition that tells them apart may be missing. Identical values can stand only once.

Experiments:
telemetered rats = assay: Conscious rat telemetry (QRS amplitude, blood pressure, tolerability); conditions: for QRS amplitude (mV change): individual rats; for QRS amplitude (mV change), Mean: mean of rats;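 for all read-outs here: male Han Wistar rats carrying implanted telemetry transmitters, with ECG and arterial pressure recorded continuously while unrestrained in their home cage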
Excerpt: Male Han Wistar rats were implanted with HD‐S11 transmitters (Data Sciences International, St. Paul, MN USA) under isoflurane anaesthesia, the telemetry transmitter was placed in the peritoneal cavity, the arterial blood pressure catheter was placed in the terminal abdominal aorta and the ECG electrodes were sutured, one at the dorsal surface of the xiphoid process and one at the anterior mediastinum, close to the right atrium[42]. Animals were allowed to recover for at least 2 weeks and were around 2–3 months at the time of experimentation. The animals were pair‐housed in standard rat cages with a non‐instrumented companion throughout the study. Cages were prepared with bedding material and enrichment.
Telemetry recordings took place in the home cage. […] The animals were removed from the cage temporarily for dosing and blood sampling. Animals were not subject to restraint except where dosing and blood sampling was performed. Data acquisition used Dataquest Open A.R.T.™ with HEM software version 4.2 (Notocord Inc).
For evaluation of AZD4320, n = 8 rats received single doses of 0 (vehicle: 30% Kleptose, pH9) or 10 mg/kg AZD4320, administered as a 30-min intravenous infusion. A cross-over study design was used, with an interval of 7 days between treatments.
Data for all parameters were collected continuously during the recording period. The continuous data from each animal was binned into chosen time intervals of varying length and averaged to generate a single data point for each reported nominal time. Each reported nominal timepoint was then averaged across each of the animals tested for each dose level.

platelets = assay: Platelet count in rats; assay type: in vivo
Excerpt: Supplementary Figure 7. Effect of AZD4320 and AZD4320-dendrimer conjugates on platelet count in rats. Data for dendrimers was collected from the same rats for which cardiovascular data were acquired (see Fig. 4a and b). Data for AZD4320 was collected from a non-cardiovascular study. Each symbol represent data from an individual rat. Colours representing each compound and dose are shown on the figure.
(1 picture or pasted object on this page, not shown here)

[1] = rat, AZD4320 10 mg/kg, 0 h post dose
[2] = rat, Dose 10 mg/kg (AZD4320 equivalent 10 for AZD4320, 3 for conjugates)

`CN(CCO)CCC(CSc1ccccc1)Nc1ccc(S(=O)(=O)NC(=O)c2ccc(N3CCC(C(O)c4ccccc4-c4ccc(Cl)cc4)CC3)cc2)cc1S(=O)(=O)C(F)(F)F` (stereo not shown) [AZD4320] was tested, and the “decrease in QRS amplitude” value (telemetered rats; rat, 10 mg/kg AZD4320) was 40%, the “rats in which dose was tolerated” value (telemetered rats; rat, 10 mg/kg AZD4320, 8 rats evaluated) was 6 of the 8 and the “QRS amplitude (mV change)” value (telemetered rats; [1]) was 0 mV. The “QRS amplitude (mV change), Mean” value (telemetered rats; [1]) was 0 mV, the “QRS amplitude (mV change)” value (telemetered rats; rat, AZD4320 10 mg/kg, 0.5 h post dose, 10 mg/kg) was 0.05 mV and -0.49 mV (2×) and -0.03 mV and 0.27 mV and -0.09 mV and the “QRS amplitude (mV change), Mean” value (telemetered rats; rat, AZD4320 10 mg/kg, 0.5 h post dose) was -0.13 mV. The “QRS amplitude (mV change)” value (telemetered rats; rat, AZD4320 10 mg/kg, 1 h post dose, 10 mg/kg) was -0.55 mV and -0.92 mV and 0.04 mV and -0.24 mV and -0.19 mV and -0.87 mV, the “QRS amplitude (mV change), Mean” value (telemetered rats; rat, AZD4320 10 mg/kg, 1 h post dose) was -0.46 mV and the “QRS amplitude (mV change)” value (telemetered rats; rat, AZD4320 10 mg/kg, 1.5 h post dose, 10 mg/kg) was -0.76 mV and -0.96 mV (2×) and 0.29 mV and -0.3 mV and -0.18 mV. The “QRS amplitude (mV change), Mean” value (telemetered rats; rat, AZD4320 10 mg/kg, 1.5 h post dose) was -0.48 mV, the “QRS amplitude (mV change)” value (telemetered rats; rat, AZD4320 10 mg/kg, 2 h post dose, 10 mg/kg) was -0.73 mV and -0.96 mV and -0.38 mV and -0.26 mV (2×) and -1.03 mV and the “QRS amplitude (mV change), Mean” value (telemetered rats; rat, AZD4320 10 mg/kg, 2 h post dose) was -0.60 mV. The “QRS amplitude (mV change)” value (telemetered rats; rat, AZD4320 10 mg/kg, 3 h post dose, 10 mg/kg) was -0.79 mV and -0.63 mV and -0.28 mV and -0.4 mV and -0.48 mV and -0.99 mV, the “QRS amplitude (mV change), Mean” value (telemetered rats; rat, AZD4320 10 mg/kg, 3 h post dose) was -0.60 mV and the “QRS amplitude (mV change)” value (telemetered rats; rat, AZD4320 10 mg/kg, 3.5 h post dose, 10 mg/kg) was -0.8 mV and -0.81 mV and -0.54 mV and -0.38 mV and -0.47 mV and -1 mV. The “QRS amplitude (mV change), Mean” value (telemetered rats; rat, AZD4320 10 mg/kg, 3.5 h post dose) was -0.67 mV, the “QRS amplitude (mV change)” value (telemetered rats; rat, AZD4320 10 mg/kg, 4 h post dose, 10 mg/kg) was -0.8 mV and -1.02 mV and -0.16 mV and -0.35 mV and -0.65 mV and -0.98 mV and the “QRS amplitude (mV change), Mean” value (telemetered rats; rat, AZD4320 10 mg/kg, 4 h post dose) was -0.66 mV. For the same molecule, the “QRS amplitude (mV change)” value (telemetered rats; rat, AZD4320 10 mg/kg, 6 h post dose, 10 mg/kg) was -0.76 mV and -1 mV and -0.2 mV and -0.16 mV and -0.57 mV and -0.7 mV, the “QRS amplitude (mV change), Mean” value (telemetered rats; rat, AZD4320 10 mg/kg, 6 h post dose) was -0.57 mV and the “QRS amplitude (mV change)” value (telemetered rats; rat, AZD4320 10 mg/kg, 8 h post dose, 10 mg/kg) was -0.63 mV (3×) and 0.08 mV and -0.08 mV and -0.57 mV. For the same molecule, the “QRS amplitude (mV change), Mean” value (telemetered rats; rat, AZD4320 10 mg/kg, 8 h post dose) was -0.41 mV, the “QRS amplitude (mV change)” value (telemetered rats; rat, AZD4320 10 mg/kg, 10 h post dose, 10 mg/kg) was -0.56 mV and -0.75 mV and 0.54 mV and 0.03 mV and -0.61 mV and -0.59 mV and the “QRS amplitude (mV change), Mean” value (telemetered rats; rat, AZD4320 10 mg/kg, 10 h post dose) was -0.32 mV. The “QRS amplitude (mV change)” value (telemetered rats; rat, AZD4320 10 mg/kg, 12 h post dose, 10 mg/kg) was -0.6 mV and -0.97 mV and -0.25 mV and 0.18 mV and -0.42 mV and -0.58 mV, the “QRS amplitude (mV change), Mean” value (telemetered rats; rat, AZD4320 10 mg/kg, 12 h post dose) was -0.44 mV and the “QRS amplitude (mV change)” value (telemetered rats; rat, AZD4320 10 mg/kg, 16 h post dose, 10 mg/kg) was -0.44 mV and -0.8 mV and 0.61 mV and -0.14 mV and -0.6 mV and -0.72 mV. The “QRS amplitude (mV change), Mean” value (telemetered rats; rat, AZD4320 10 mg/kg, 16 h post dose) was -0.35 mV, the “QRS amplitude (mV change)” value (telemetered rats; rat, AZD4320 10 mg/kg, 24 h post dose, 10 mg/kg) was -0.56 mV and -0.96 mV and -0.74 mV and -0.13 mV and -0.57 mV and -0.76 mV and the “QRS amplitude (mV change), Mean” value (telemetered rats; rat, AZD4320 10 mg/kg, 24 h post dose) was -0.62 mV. For the same molecule, the “QRS amplitude (mV change), Mean” value (telemetered rats; rat, AZD4320 10 mg/kg, […] post dose) was -0.58 mV, the Blood pressure decrease (telemetered rats; [2]) was “Yes” and the QRS amplitude decrease (telemetered rats; [2]) was “Yes”. For the same molecule, the “Tolerated?” value (telemetered rats; [2]) was 6/8, the “effect on QRS amplitude” value (telemetered rats; telemetered rat, AZD4320 10 mg/kg, conjugates 30 mg/kg IV) was “marked and prolonged reduction in QRS amplitude” and the “Platelet count, individual rat” value (platelets; 10mg/kg, Day 2 (3h post dose), 10 mg/kg) was 31 10^9/L and 28 10^9/L and 46 10^9/L and 13 10^9/L. For the same molecule, the Platelets post-dose (platelets; [2]) was 30 109/l.
